Patent US20220331416A1, “COMBINED EXPRESSION OF A CHIMERIC CD3 FUSION PROTEIN AND AN ANTI-CD3-BASED BISPECIFIC T CELL ACTIVATING ELEMENT” (BIOTHEUS (SUZHOU) CO., LTD., priority 2019, published 2022)

Experiments:
[1] = system: CAIX CAB-T co-cultured with CAIX+MDA-MB231; test: Dasatinib inhibition of cytokine release of CAIX CAB-T; assay type: cell-based; settings: activated CAIX CAB-T, co-cultured overnight
[2] = system: HER2 CAB-T co-cultured with SKBR3; test: Dasatinib inhibition of cytokine release of HER2 CAB-T; assay type: cell-based; settings: activated HER2 CAB-T, co-cultured overnight
[3] = system: HER2 CAB-T co-cultured with SKBR3; test: Dasatinib inhibition of killing activity of HER2 CAB-T (LDH); settings: E:T 5:1, over 12 hours
[4] = system: CAIX CAB-T co-cultured with CALX+MDA-MB231; settings: E:T 5:1, over 12 hours
Description: Briefly, 5×10^4 effector cells (CAIX CAB-T or HER2 CAB-T) and 1×10^4 target cells (CALX+MDA-MB231 or SKBR3) were co-cultured with a gradient concentration of dasatinib (100 nM, 50 nM, 25 nM, 12.5 nM, 6.25 nM, 0 nM), Cytotoxicity of CAB-T to its target cells were determined in 2-hour intervals over a period of 12 hours [effector-to-target cell (E:T) ratio, 5:1].

Cc1nc(Nc2ncc(C(=O)Nc3c(C)cccc3Cl)s2)cc(N2CCN(CCO)CC2)n1 [dasatinib]
dose at which IFNγ secretion is inhibited effectively [1]: around 25 nM
dose at which IL-2 secretion is inhibited effectively [1]: around 25 nM
dose at which IFNγ secretion is inhibited effectively [2]: around 25 nM
dose at which IL-2 secretion is inhibited effectively [2]: around 25 nM
dose at which cytotoxicity to target cells is inhibited effectively [3]: around 50 nM
dose at which cytotoxicity to target cells is inhibited effectively [4]: around 50 nM
